Series [1] relates to MED1, BRD4, and POL2 condensates in HCT116 colon cancer cell lines. Put plainly: Small molecule effects on transcriptional condensates in GFP-tagged HCT116 cells. It counts as cell-based, human. As to conditions: for effect of antimetabolites on MED1, BRD4 or POL2 condensates: 5 uM; for effect on transcriptional condensates: MED1-GFP, BRD4-GFP, POL2-GFP HCT116. The text has this: HCT116 colon cancer cell lines endogenously tagged with MED1-GFP, BRD4-GFP, POL2-GFP, or HP1a-GFP (Mock), all forming condensates in the nucleus.

For series [2], the target named is T1, MED1 (Homo sapiens, UniProt Q15648).
T1 construct: MED1—amino acids 600-1581; 6xHis (N); made in house; host or cells: LOBSTR cells (E. coli)
The series can be described thus: In vitro droplet assay, small molecule partitioning into MED1 condensates. It counts as binding. As to conditions: confocal fluorescence; Example 2: 125 mM NaCl, 10% PEG, 10 μM protein; fluorescent or fluorescently labeled drug. As for the experimental part:
Recombinant BFP, GFP, or mCherry fusion proteins were concentrated and desalted to an appropriate protein concentration and 125 mM NaCl using Amicon Ultra centrifugal filters (30K MWCO, Millipore). Recombinant protein was added too. […] The protein solution was immediately loaded onto glass bottom 384 well plate (Cellvis P384-1.5H-N) and imaged with an Andor confocal microscope with a 150× objective. Unless indicated, images presented are of droplets settled on the glass coverslip.
Drug and small molecule concentrations used in the droplet experiments are as follows:
To analyze in vitro droplet experiments, custom Python scripts using the scikit-image package were written to identify droplets and characterize their size, shape and intensity. Droplets were segmented from average images of captured channels on various criteria: (1) an intensity threshold that was three s.d. above the mean of the image; (2) size thresholds (20 pixel minimum droplet size); and (3) a minimum circularity (circularity=4π·areaperimeter2) (circularity=4π·areaperimeter2) of 0.8 (1 being a perfect circle). After segmentation, mean intensity for each droplet was calculated while excluding pixels near the phase interface, and background-corrected by subtracting intensity of dark images of droplet formation buffer only. Droplets identified in the channel of the fluorescent protein from ten independent fields of view were quantified for each experiment. The maximum intensity of signal within the droplets was calculated for each channel, the maximum intensity in the drug channel was termed “maximum drug intensity”. To obtain the intensity of drug or dye alone in the diffuse state (termed “diffuse drug intensity”), the compound was added to droplet formation buffer at same concentration used in the droplet assay. This was then imaged on a confocal fluorescent microscope. The resulting image was processed in FIJI to obtain the fluorescent intensity of the field. To obtain the fluorescent intensity of protein droplets that bleed through in the drug channel (termed “background intensity”) protein droplets were imaged in the fluorescent channel in which the drug fluoresces and processed as above to obtain the average maximum intensity within the droplet across 10 images. The enrichment ratio was obtained by the following formula [(maximum drug intensity)−(background intensity)]/(diffuse drug intensity). The box plots show the distributions of all droplets. Each dot represents an individual droplet.

A short description of series [3]: Droplet formation assay of small molecule alone without any protein. As to conditions: without any protein added. It counts as physicochemical. As for the experimental part: Recombinant BFP, GFP, or mCherry fusion proteins were concentrated and desalted to an appropriate protein concentration and 125 mM NaCl using Amicon Ultra centrifugal filters (30K MWCO, Millipore). […] […] The protein solution was immediately loaded onto glass bottom 384 well plate (Cellvis P384-1.5H-N) and imaged with an Andor confocal microscope with a 150× objective. Unless indicated, images presented are of droplets settled on the glass coverslip.

For series [4], the target named is T2, MED1 droplets (Homo sapiens, UniProt Q15648).
T2 construct: MED1—amino acids 600-1581; 6xHis (N); made in house; host or cells: LOBSTR cells (E. coli)
The series can be described thus: In vitro droplet drug chase out experiment. It counts as binding. As to conditions: 5 μM cisplatin-TR, 10 μM MED1, unlabeled compound 10, 100 or 500 μM. As for the experimental part: For chase-out experiments 5 μM labeled cisplatin-TR was added to a MED1 droplets reaction (10 μM MED1, 50 mM Tris-HCl pH 7.5, 10% glycerol, 1 mM DTT, 10% PEG) in order to form MED1 droplets concentrated with Cisplatin-TR. Unlabeled transplatin or unlabeled cisplatin (vehicle, 10 μM, 100 μM, or 500 μM) were added to the droplet mixture and the amount of labeled cisplatin-TR remaining in the droplet is measured after chase out. 100 μM fluorescent FLTX1 was added to a MED1 droplets reaction (10 μM MED1, 50 mM Tris-HCl pH 7.5, 10% glycerol, 1 mM DTT, 10% PEG) in order to form MED1 droplets concentrated with FLTX1.

The target of series [5] is T3, ER/MED1 droplets (Homo sapiens, UniProt P03372).
T3 sequence (P03372 1-595): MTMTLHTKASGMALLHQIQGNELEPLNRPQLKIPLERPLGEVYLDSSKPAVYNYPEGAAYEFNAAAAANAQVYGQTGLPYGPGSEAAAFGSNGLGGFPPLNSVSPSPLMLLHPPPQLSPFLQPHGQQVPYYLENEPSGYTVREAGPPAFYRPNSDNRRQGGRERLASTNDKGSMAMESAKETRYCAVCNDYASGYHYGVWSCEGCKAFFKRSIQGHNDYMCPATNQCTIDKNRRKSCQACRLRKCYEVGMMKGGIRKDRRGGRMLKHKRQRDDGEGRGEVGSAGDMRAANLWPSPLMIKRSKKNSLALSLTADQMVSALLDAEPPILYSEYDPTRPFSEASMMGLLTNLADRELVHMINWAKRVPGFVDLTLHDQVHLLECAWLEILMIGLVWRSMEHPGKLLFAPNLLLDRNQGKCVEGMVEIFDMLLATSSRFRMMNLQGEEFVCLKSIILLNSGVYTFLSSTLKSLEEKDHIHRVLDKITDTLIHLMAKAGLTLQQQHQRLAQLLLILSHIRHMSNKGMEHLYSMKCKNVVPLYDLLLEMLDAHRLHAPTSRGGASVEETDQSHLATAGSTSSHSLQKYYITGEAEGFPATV
Put plainly: Peptides added to ER/MED1 droplets. In kind it is biochemical. As to conditions: for effect of peptide on ER partitioning / ER/MED1 droplet formation: in the presence of estrogen. As for the experimental part: FIG. 24 illustrates ER/MED1 droplets contacted with a fluorescent peptide (left side).
A number of condensate components are known to form in vitro condensates. In general, one or more condensate components are added to solutions (e.g. aqueous solution) at varying concentrations in the presence of a salt (e.g., NaCl) and, optionally, a crowding agent (e.g., polyethylene glycol, Ficoll). See, e.g., Boija et al, Cell, vol. 175, no. 7, pp. 1842-1855 (2018); Sabari et al., Science, vol. 361, pp. 361-371 (2018); Bergeron-Sandoval et al., Cell, vol. 165, no. 5, pp. 1067-1079 (2016). May 19; 165(5):1067-1079, the relevant methods of which are specifically incorporated herein. In some embodiments, in vitro MED1 containing condensates are formed by adding about 10 μM of MED1 to a solution containing […] of NaCl and 10% PEG (e.g., PEG-8000).

For series [6], the target named is T4, MED1 intrinsically disordered region, amino acids 600-1581, recombinant fluorescent fusion protein (human, UniProt Q15648 600-1581).
T4 construct: Scaffold protein of the in vitro droplets; also called MED1-IDR; MED1 IDR; not shown: N-terminal 6xHIS plus fluorescent protein (BFP, mEGFP or mCherry)
The series can be described thus: in vitro droplet assay, peptide added to ER/MED1 droplets.

No end group written: not given here.

T1 sequence (Q15648 600-1581): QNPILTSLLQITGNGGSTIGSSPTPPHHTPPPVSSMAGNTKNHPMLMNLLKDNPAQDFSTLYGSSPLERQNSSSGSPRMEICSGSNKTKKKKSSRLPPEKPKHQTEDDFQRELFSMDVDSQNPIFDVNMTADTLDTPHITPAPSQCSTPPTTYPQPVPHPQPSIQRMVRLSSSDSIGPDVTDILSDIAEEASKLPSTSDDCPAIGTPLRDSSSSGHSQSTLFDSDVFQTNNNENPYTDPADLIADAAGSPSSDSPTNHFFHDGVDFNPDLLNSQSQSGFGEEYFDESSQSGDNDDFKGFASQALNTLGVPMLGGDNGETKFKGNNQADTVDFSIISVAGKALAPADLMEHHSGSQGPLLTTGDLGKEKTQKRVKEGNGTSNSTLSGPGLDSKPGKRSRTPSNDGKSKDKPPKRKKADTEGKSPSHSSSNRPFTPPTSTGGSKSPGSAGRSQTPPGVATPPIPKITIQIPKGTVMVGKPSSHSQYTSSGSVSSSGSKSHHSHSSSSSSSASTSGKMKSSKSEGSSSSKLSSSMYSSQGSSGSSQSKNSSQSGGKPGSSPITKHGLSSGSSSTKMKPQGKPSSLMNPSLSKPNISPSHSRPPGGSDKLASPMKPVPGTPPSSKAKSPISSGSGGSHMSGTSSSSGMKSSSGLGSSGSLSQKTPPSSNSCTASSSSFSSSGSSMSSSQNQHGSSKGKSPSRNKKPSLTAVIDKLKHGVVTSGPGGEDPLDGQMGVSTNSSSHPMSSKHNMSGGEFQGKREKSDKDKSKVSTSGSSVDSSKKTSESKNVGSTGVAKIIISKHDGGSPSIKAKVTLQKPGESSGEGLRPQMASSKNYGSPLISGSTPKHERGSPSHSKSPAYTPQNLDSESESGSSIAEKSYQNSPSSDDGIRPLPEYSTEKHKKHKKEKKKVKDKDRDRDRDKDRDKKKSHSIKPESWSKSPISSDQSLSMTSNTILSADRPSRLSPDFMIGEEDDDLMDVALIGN
T2 sequence (Q15648 600-1581): as above
T4 sequence (Q15648 600-1581 limits assumed): as the sequence (Q15648 600-1581) above

In the case of `Nc1ncn([C@@H]2O[C@H](CO)[C@@H](O)[C@H]2O)c(=O)n1` [5-Aza], the “effect of antimetabolites on MED1, BRD4 or POL2 condensates” value in series [1] is on record as “no effect”.

In the case of `O=c1[nH]cc(F)c(=O)[nH]1` [5-FU, fluorouracil], the “effect of antimetabolites on MED1, BRD4 or POL2 condensates” value in series [1] is listed as “no effect”.

As for `CNC(=O)Nc1ccc2c(c1)CC[C@@]21OC(=O)N(CC(=O)N(Cc2ccc(F)cc2)[C@@H](C)C(F)(F)F)C1=O` [A485], the “effect on transcriptional condensates” value in series [1] was “genomic release and consolidation of condensates”.

Turning to `CC(C)C[C@H](NC(=O)[C@H](Cc1ccccc1)NC(=O)c1cnccn1)B(O)O` [Bortezomib], the “effect on transcriptional condensates” value in series [1] is on record as “global dissolution of condensates”. `COc1cccc2c1C(=O)c1c(O)c3c(c(O)c1C2=O)C[C@@](O)(C(C)=O)C[C@@H]3O[C@H]1C[C@H](N)[C@H](O)[C@H](C)O1` [Daunorubicin]: the “effect on transcriptional condensates” value is “global dissolution of condensates” in series [1] and “cause condensate dissolution” in series [1] (listed as daunorubicin). The “partitioning / incorporation into MED1 droplets” value in series [2] is on record as “immediately incorporate into MED1 droplets”.

Turning to `CN(C)C/C=C/C(=O)Nc1ccc(C(=O)Nc2cccc(Nc3ncc(Cl)c(-c4c[nH]c5ccccc45)n3)c2)cc1` [THZ1], in series [1], the “effect on transcriptional condensates” value was “global dissolution of condensates”. Besides, the “droplet formation of small molecule alone” value in series [3] was “diffuse fluorescent signal”. For the same molecule, the “partitioning / incorporation into MED1 droplets” value in series [2] was “concentrated preferentially in MED1 droplets”. On to `N.N.[Cl][Pt+2][Cl]` [Transplatin, transplatin], for which the “chase out of cisplatin-TR from MED1 droplets by unlabeled compound” value in series [4] is reported as “not able to chase out cisplatin-TR”; in series [4] (listed as isomer of cisplatin), “did not exhibit the same behavior”. Regarding `N#CC(=C(/N)Sc1ccccc1N)/C(C#N)=C(/N)Sc1ccccc1N` [U0216], in series [1], the “effect on transcriptional condensates” value was “eviction of some condensate components”. As for `COc1cc(/C=C/C(=O)CC(=O)/C=C/c2ccc(O)c(OC)c2)ccc1O` [curcumin], the “effect on transcriptional condensates” value in series [1] is recorded as “cause condensate dissolution”. Also, the “partitioning / incorporation into MED1 droplets” value in series [2] is “immediately incorporate into MED1 droplets”. Turning to “CTD: RNA polymerase II CTD repeat YSPTSPS peptide”, the “effect of peptide on ER partitioning / ER/MED1 droplet formation” value in series [5] is given as “did not have an effect”. On to QNPILTSLLQITG [LXXLL peptide], for which, in series [5] (ER/MED1 droplets), the “incorporation of peptide into MED1 droplets” value is recorded as “incorporated into MED1 droplets”. The “effect of peptide on ER partitioning / ER/MED1 droplet formation” value in series [5] is “decrease in partitioning of ER into the MED1 droplet”.

Take Texas Red: the “partitioning / incorporation into MED1 droplets” value in series [2] is “Neither of the two dyes used to visualized drugs were enriched”.

B1: LXXLL peptide (QNPILTSLLQITG; SEQ ID NO: 1) (peptide)
peptide: QNPILTSLLQITG
modifications: also: fluorescent label, type and position not given here
notes: also called fluorescent peptide
Turning to B1, the binding result in series [6] is given as “binds”.

The record behind these values is US20220390432A1, “METHODS OF CHARACTERIZING AND UTILIZING AGENT-CONDENSATE INTERACTIONS” (Whitehead Institute for Biomedical Research, priority 2019, published 2022).
